According to US9150632B2 (Indiana University Research and Technology Corporation, priority 2009, dated 2015):
Positions of bridges follow the written chain, without caps; N, C: chain ends. Residues, ends and D or L forms follow the SMILES beside them.

Experiments:
glucagon receptor = molecular target: T1, glucagon receptor (Homo sapiens, UniProt P47871); test: Functional assay-cAMP synthesis, luciferase reporter in HEK293 cells, glucagon receptor; format: cell-based; parameters: % activity: concentration or dose not given beside the values; conditions: for Glucagon Receptor Relative Potency: Table 11; for % Activity of Glucagon: Table 21, relative to the native peptide
T1 construct: expressed in transfected cells; host or cells: HEK293

GLP-1 receptor = GLP-1 receptor (Homo sapiens, UniProt P43220); conditions: for GLP-1 Receptor Relative Potency: Table 11; for % Activity of GLP-1: Table 21, relative to the native peptide
Protocol: Peptide absorbance readings were obtained from UV Absorbance measurements at 280 nm on a Genesys 6 Spectrophotometer (Thermo Electron Corporation). Beer's Law was used to calculate solution concentrations based on the number of tryptophan and tyrosine residues in each analog. At the end of the incubation, 100 μL LucLite luminescence substrate reagent was added to each well, the plate sealed and shaken, and placed into a Wallac Trilux luminescence counter for cAMP detection.
HEK293 cells were co-transfected with the GcgR or GLP-1R cDNAs and a luciferase reporter gene-linked to a cAMP response element (CRE). […] The plate was incubated for 10 min in the dark and light output was quantified on a MicroBeta1450 liquid scintillation counter (Perkin-Elmer, Wellesley, Mass.).

[1] = Table 18, relative to the native hormone of the indicated receptor

T1 sequence (P47871 26-477): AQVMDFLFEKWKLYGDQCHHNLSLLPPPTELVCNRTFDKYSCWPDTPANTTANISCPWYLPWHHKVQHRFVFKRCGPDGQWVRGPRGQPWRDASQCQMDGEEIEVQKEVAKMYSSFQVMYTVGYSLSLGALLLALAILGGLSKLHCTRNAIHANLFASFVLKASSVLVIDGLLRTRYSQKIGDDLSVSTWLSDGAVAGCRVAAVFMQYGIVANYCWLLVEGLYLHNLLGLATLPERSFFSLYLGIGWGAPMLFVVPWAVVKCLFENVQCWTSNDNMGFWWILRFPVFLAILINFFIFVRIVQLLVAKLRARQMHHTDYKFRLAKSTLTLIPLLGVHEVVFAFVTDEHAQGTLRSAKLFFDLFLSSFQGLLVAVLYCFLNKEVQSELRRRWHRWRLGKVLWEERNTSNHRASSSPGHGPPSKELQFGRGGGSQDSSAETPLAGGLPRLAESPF
Chain of GLP-1 receptor (P43220 24-463, species assumed): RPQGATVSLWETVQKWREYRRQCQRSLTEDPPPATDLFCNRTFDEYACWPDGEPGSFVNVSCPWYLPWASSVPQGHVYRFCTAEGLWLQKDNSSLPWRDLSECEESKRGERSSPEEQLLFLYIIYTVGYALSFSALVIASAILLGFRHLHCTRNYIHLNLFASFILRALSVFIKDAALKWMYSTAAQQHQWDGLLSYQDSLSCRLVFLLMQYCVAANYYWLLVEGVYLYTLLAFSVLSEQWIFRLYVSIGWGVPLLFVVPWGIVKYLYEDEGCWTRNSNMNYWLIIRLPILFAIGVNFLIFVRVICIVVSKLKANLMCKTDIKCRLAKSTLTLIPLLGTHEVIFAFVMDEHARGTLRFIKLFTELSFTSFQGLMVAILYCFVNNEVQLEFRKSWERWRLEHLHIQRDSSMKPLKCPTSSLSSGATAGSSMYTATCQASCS

| Compound | GLP-1 Receptor Relative Potency (GLP-1 receptor) | % Activity of Glucagon (glucagon receptor) | % Activity of GLP-1 (GLP-1 receptor) | further results |
| --- | --- | --- | --- | --- |
| CSCC[C@H](NC(=O)[C@H](CC(C)C)NC(=O)[C@H](Cc1c[nH]c2ccccc12)NC(=O)[C@H](CCC(N)=O)NC(=O)[C@@H](NC(=O)[C@H](Cc1ccccc1)NC(=O)[C@H](CC(=O)O)NC(=O)[C@H](CCC(N)=O)NC(=O)[C@H](C)NC(=O)[C@H](CCCNC(=N)N)NC(=O)[C@H](CCCNC(=N)N)NC(=O)[C@H](CO)NC(=O)[C@H](CC(=O)O)NC(=O)[C@H](CC(C)C)NC(=O)[C@H](Cc1ccc(O)cc1)NC(=O)[C@H](CCCCN)NC(=O)[C@H](CO)NC(=O)[C@H](Cc1ccc(O)cc1)NC(=O)[C@H](CC(=O)O)NC(=O)[C@H](CO)NC(=O)[C@@H](NC(=O)[C@H](Cc1ccccc1)NC(=O)[C@@H](NC(=O)CNC(=O)[C@H](CCC(N)=O)NC(=O)[C@H](CO)NC(=O)[C@@H](N)Cc1c[nH]cn1)[C@@H](C)O)[C@@H](C)O)C(C)C)C(=O)N[C@@H](CCCCN)C(=O)NCC(=O)NCC(=O)N1CCC[C@H]1C(=O)N[C@@H](CO)C(=O)N[C@@H](CO)C(=O)NCC(=O)N[C@@H](C)C(=O)N1CCC[C@H]1C(=O)N1CCC[C@H]1C(=O)N1CCC[C@H]1C(=O)N[C@@H](CO)C(N)=O [MKGG^30 PSSGAPPPS (SEQ ID NO: 523)] | 3% |  |  | Glucagon Receptor Relative Potency (glucagon receptor): 14% |
| H-HSQGTFTSDYSKYLDSRRAQDFVQWLVKGGPSSGAPPPS-NH2 [VKGG^30 PSSGAPPPS (SEQ ID NO: 524)] | 12% |  |  | Glucagon Receptor Relative Potency (glucagon receptor): 7% |
| CCCCCCCCCCCCCC(=O)NCCCC[C@H](NC(=O)[C@H](CC(=O)O)NC(=O)[C@H](CO)NC(=O)[C@@H](NC(=O)[C@H](Cc1ccccc1)NC(=O)[C@@H](NC(=O)CNC(=O)[C@H](CCC(N)=O)NC(=O)[C@@H](CO)NC(=O)[C@@H](N)Cc1c[nH]cn1)[C@@H](C)O)[C@@H](C)O)C(=O)N[C@@H](CO)C(=O)N[C@@H](CCCCN)C(=O)N[C@@H](Cc1ccc(O)cc1)C(=O)N[C@@H](CC(C)C)C(=O)N[C@@H](CC(=O)O)C(=O)N[C@@H](CCC(=O)O)C(=O)N[C@@H](CCCNC(=N)N)C(=O)N[C@@H](CCCNC(=N)N)C(=O)N[C@@H](C)C(=O)N[C@@H](CCCCN)C(=O)N[C@@H](CC(=O)O)C(=O)N[C@@H](Cc1ccccc1)C(=O)N[C@H](C(=O)N[C@@H](CCC(N)=O)C(=O)N[C@@H](Cc1c[nH]c2ccccc12)C(=O)N[C@@H](CC(C)C)C(=O)N[C@@H](CCSC)C(=O)N[C@@H](CC(N)=O)C(=O)N[C@H](C(N)=O)[C@@H](C)O)C(C)C [dS2, E16/K20, K10(C14) Gluc Amide, HXQGTFTSDKSKYLDERRAKDFVQWLMNT-amide] |  | 21.9% | 6.3% |  |
| CCCCCCCCCCCCCCCC(=O)NCCCC[C@H](NC(=O)[C@H](CC(=O)O)NC(=O)[C@H](CO)NC(=O)[C@@H](NC(=O)[C@H](Cc1ccccc1)NC(=O)[C@@H](NC(=O)CNC(=O)[C@H](CCC(N)=O)NC(=O)C(C)(C)NC(=O)[C@@H](N)Cc1c[nH]cn1)[C@@H](C)O)[C@@H](C)O)C(=O)N[C@@H](CO)C(=O)N[C@@H](CCCCN)C(=O)N[C@@H](Cc1ccc(O)cc1)C(=O)N[C@@H](CC(C)C)C(=O)N[C@@H](CC(=O)O)C(=O)NC(C)(C)C(=O)N[C@@H](CCCNC(=N)N)C(=O)N[C@@H](CCCNC(=N)N)C(=O)N[C@@H](C)C(=O)N[C@@H](CCC(N)=O)C(=O)N[C@@H](CC(=O)O)C(=O)N[C@@H](Cc1ccccc1)C(=O)N[C@H](C(=O)N[C@@H](CCC(N)=O)C(=O)N[C@@H](Cc1c[nH]c2ccccc12)C(=O)N[C@@H](CC(C)C)C(=O)N[C@@H](CCSC)C(=O)N[C@@H](CC(N)=O)C(=O)N[C@H](C(N)=O)[C@@H](C)O)C(C)C [AIB2, AIB16, K10(C16) Gluc Amide] |  | 170% | 72.3% |  |
| CCCCCCCCCCCCCCCCCC(=O)NCCCC[C@H](NC(=O)[C@H](CC(=O)O)NC(=O)[C@H](CO)NC(=O)[C@@H](NC(=O)[C@H](Cc1ccccc1)NC(=O)[C@@H](NC(=O)CNC(=O)[C@H](CCC(N)=O)NC(=O)[C@@H](CO)NC(=O)[C@@H](N)Cc1c[nH]cn1)[C@@H](C)O)[C@@H](C)O)C(=O)N[C@@H](CO)C(=O)N[C@@H](CCCCN)C(=O)N[C@@H](Cc1ccc(O)cc1)C(=O)N[C@@H](CC(C)C)C(=O)N[C@@H](CC(=O)O)C(=O)N[C@@H](CCC(=O)O)C(=O)N[C@@H](CCCNC(=N)N)C(=O)N[C@@H](CCCNC(=N)N)C(=O)N[C@@H](C)C(=O)N[C@@H](CCCCN)C(=O)N[C@@H](CC(=O)O)C(=O)N[C@@H](Cc1ccccc1)C(=O)N[C@H](C(=O)N[C@@H](CCC(N)=O)C(=O)N[C@@H](Cc1c[nH]c2ccccc12)C(=O)N[C@@H](CC(C)C)C(=O)N[C@@H](CCSC)C(=O)N[C@@H](CC(N)=O)C(=O)N[C@H](C(N)=O)[C@@H](C)O)C(C)C [dS2, E16/K20, K10(C18) Gluc Amide] |  | 196% | 60% |  |
| CSCC[C@H](NC(=O)[C@H](CC(C)C)NC(=O)[C@H](Cc1c[nH]c2ccccc12)NC(=O)[C@H](CC(N)=O)NC(=O)[C@@H](NC(=O)[C@H](Cc1ccccc1)NC(=O)[C@H](CCC(=O)O)NC(=O)[C@@H]1CCCCNC(=O)CC[C@H](NC(=O)[C@H](CC(=O)O)NC(=O)[C@H](CC(C)C)NC(=O)[C@H](Cc2ccc(O)cc2)NC(=O)[C@H](CCCCN)NC(=O)[C@H](CO)NC(=O)[C@H](Cc2ccc(O)cc2)NC(=O)[C@H](CC(=O)O)NC(=O)[C@H](CO)NC(=O)[C@@H](NC(=O)[C@H](Cc2ccccc2)NC(=O)[C@@H](NC(=O)CNC(=O)[C@H](CCC(N)=O)NC(=O)[C@H](CO)NC(=O)[C@@H](N)Cc2ccc(O)cc2)[C@@H](C)O)[C@@H](C)O)C(=O)N[C@@H](CCC(N)=O)C(=O)N[C@@H](C)C(=O)N[C@@H](C)C(=O)N1)C(C)C)C(=O)N[C@@H](CC(N)=O)C(=O)NCC(=O)NCC(=O)N1CCC[C@H]1C(=O)N[C@@H](CO)C(=O)N[C@@H](CO)C(=O)NCC(=O)N[C@@H](C)C(=O)N1CCC[C@H]1C(=O)N1CCC[C@H]1C(=O)N1CCC[C@H]1C(=O)N[C@@H](CO)C(N)=O [SEQ ID NO: 555] (H-YSQGTFTSDYSKYLDEQAAKEFVNWLMNGGPSSGAPPPS-NH2; lactam 16-20; N-terminus assumed) |  |  |  | Relative Activity, Glucagon receptor (glucagon receptor; [1]): 343.18%; Relative Activity, GLP-1 receptor (GLP-1 receptor; [1]): 100.00% |
| CC[C@H](C)[C@H](NC(=O)[C@H](Cc1ccccc1)NC(=O)[C@H](CCC(=O)O)NC(=O)[C@H](CCCCN)NC(=O)[C@H](C)NC(=O)[C@H](C)NC(=O)[C@H](CCC(N)=O)NC(=O)CNC(=O)[C@H](CCC(=O)O)NC(=O)[C@H](CC(C)C)NC(=O)[C@H](Cc1ccc(O)cc1)NC(=O)[C@H](CO)NC(=O)[C@H](CO)NC(=O)[C@@H](NC(=O)[C@H](CC(=O)O)NC(=O)[C@H](CO)NC(=O)[C@@H](NC(=O)[C@H](Cc1ccccc1)NC(=O)[C@@H](NC(=O)CNC(=O)[C@H](CCC(=O)O)NC(=O)[C@H](C)NC(=O)[C@@H](N)Cc1c[nH]cn1)[C@@H](C)O)[C@@H](C)O)C(C)C)C(=O)N[C@@H](C)C(=O)N[C@@H](Cc1c[nH]c2ccccc12)C(=O)N[C@@H](CC(C)C)C(=O)N[C@H](C(=O)N[C@@H](CCCCN)C(=O)NCC(=O)NCC(N)=O)C(C)C [GLP-1-VKGG^30 (SEQ ID NO: 527), HAEGTFTSDVSSYLEGQAAKEFIAW LVKGGa, reference compound] | 100% |  |  |  |
| CCCCCCCCCCCCCCCC(=O)NCCCC[C@H](NC(=O)[C@H](CC(=O)O)NC(=O)[C@H](CO)NC(=O)[C@@H](NC(=O)[C@H](Cc1ccccc1)NC(=O)[C@@H](NC(=O)CNC(=O)[C@H](CCC(N)=O)NC(=O)[C@@H](CO)NC(=O)[C@@H](N)Cc1c[nH]cn1)[C@@H](C)O)[C@@H](C)O)C(=O)N[C@@H](CO)C(=O)N[C@@H](CCCCN)C(=O)N[C@@H](Cc1ccc(O)cc1)C(=O)N[C@@H](CC(C)C)C(=O)N[C@@H](CC(=O)O)C(=O)N[C@@H](CCC(=O)O)C(=O)N[C@@H](CCCNC(=N)N)C(=O)N[C@@H](CCCNC(=N)N)C(=O)N[C@@H](C)C(=O)N[C@@H](CCCCN)C(=O)N[C@@H](CC(=O)O)C(=O)N[C@@H](Cc1ccccc1)C(=O)N[C@H](C(=O)N[C@@H](CCC(N)=O)C(=O)N[C@@H](Cc1c[nH]c2ccccc12)C(=O)N[C@@H](CC(C)C)C(=O)N[C@@H](CCSC)C(=O)N[C@@H](CC(N)=O)C(=O)N[C@H](C(N)=O)[C@@H](C)O)C(C)C [dS2, E16/K20, K10(C16) Gluc Amide, HXQGTFTSDKSKYLDERRAKDFVQWLMNT-amide] |  | 44.7% | 19.5% |  |
| CSCC[C@H](NC(=O)[C@H](CC(C)C)NC(=O)[C@H](Cc1c[nH]c2ccccc12)NC(=O)[C@H](C)NC(=O)[C@@H](NC(=O)[C@H](Cc1ccccc1)NC(=O)[C@H](CC(=O)O)NC(=O)[C@H](C)NC(=O)[C@H](C)NC(=O)[C@H](CCCNC(=N)N)NC(=O)[C@H](CCCNC(=N)N)NC(=O)C(C)(C)NC(=O)[C@H](CC(=O)O)NC(=O)[C@H](CC(C)C)NC(=O)[C@H](Cc1ccc(O)cc1)NC(=O)[C@H](CCCCN)NC(=O)[C@H](CO)NC(=O)[C@H](Cc1ccc(O)cc1)NC(=O)[C@H](CC(=O)O)NC(=O)[C@H](CO)NC(=O)[C@@H](NC(=O)[C@H](Cc1ccccc1)NC(=O)[C@@H](NC(=O)CNC(=O)[C@H](CCNC(C)=O)NC(=O)[C@H](CO)NC(=O)[C@@H](N)Cc1c[nH]cn1)[C@@H](C)O)[C@@H](C)O)C(C)C)C(=O)N[C@@H](CC(=O)O)C(=O)N[C@@H](CCC(=O)O)C(=O)O [SEQ ID NO: 601] |  |  |  | % activity (glucagon receptor; Table 26, glucagon receptor): 86% |
